# Assay results from patent US20210189444A1, “METHOD OF PURIFYING CANNABINOIDS FROM YEAST FERMENTATION BROTH” (Demetrix, Inc., priority 2019, published 2021).
# Experiment: solubility of CBGA and CBG in water as a function of pH (solubility curves, FIG. 4)
smiles,measurement,setting,value
"CCCCCc1cc(O)c(C/C=C(\C)CCC=C(C)C)c(O)c1C(=O)O [CBGA, cannabigerolic acid]",solubility in aqueous phase,"pH 11.5 (25% KOH), water:IPM 4:1",soluble
same,solubility in water,pH <2,insoluble
